In US7855182B2, “Materials and methods for treatment of cancer” (The Institute of Cancer Research; Royal Cancer Hospital, priority 2004, dated 2010):

What was measured:
HL-60 = assay: Clonogenic cell survival assay in soft agar, HL-60 control leukaemic cell line not expressing GPC5; assay type: cell-based; conditions: HL-60 cells, compared to sham-treated
Procedure: In this assay, cells are grown at low density in suspension in soft agar following treatment. Each colony formed derives from a single surviving cell. 2 ml aliquots of diluted cells were added to polystyrene tubes (Elkay Products (UK) Ltd., Basingstoke, Hampshire, UK) containing 3 ml of medium supplemented with 20% FCS and 0.2% Agar Noble (DIFCO Laboratories, Detroit, Mich.), incubated at 37° C., and colonies containing at least 32 cells counted after 14 days. The number of colonies formed following drug treatment were compared to the number obtained following sham electroporation or a control scrambled oligonucleotide and expressed as % control treatment. In a number of separate experiments, control plating efficiencies ranged from 22-38%, with 800-1600 cells typically plated. In addition, cells from the dilution series (approx 10^3-10^4 cells/ml) were allowed to grow up in suspension culture in parallel for 3-5 days in order to confirm cytotoxicity.
Two active compounds, ISIS 276107 and ISIS 276119, were identified in this primary screen, reducing GPC5 levels to less than 30% control levels and reducing cell survival by greater than 80% (FIG. 3A). […] FIGS. 3B and C show the effects of ISIS 276107 and a control compound (ISIS 276124) at varying concentrations in the same assay.

GPC5 = GPC5 expression in PC3M tumours grown as subcutaneous implants in treated mice; assay type: in vivo, athymic nude mice; conditions: preliminary
Procedure: (§1) To measure the amount of mature mRNA copies of GPC5 and GPC6 the probe was designed across the exon 1-exon 2 boundary and the exon 7-exon 8 boundary respectively. Applied Biosystems' Predeveloped GAPDH (Glyceraldehyde 3-phosphate dehydrogenase) was used as an endogenous control. 25 μL multiplex PCR reactions were run using 2× Universal TaqMan® Master Mix (Applied Biosystems Pt No. 4304437), the concentration of primers and probes shown in Table 1 and 10 ng of DNA or cDNA. These samples were run in triplicate under standard operating conditions on an ABI7700 SDS TaqMan® Machine (Applied Biosystems, CA). […] Thus, the amount of GPC5 and GPC6 was measured relative to either normal genomic DNA in the case of genomic measurements and to normal muscle in the case of expression measurements. Normal genomic DNA was extracted from the blood of a healthy donor, normal muscle cDNA was produced from RNA extracted from a pool of 11 normal muscle biopsies.
Previous gene profiling studies following treatment of K562 cells with WT1 directed ASOs, identified GPC5 as a putative WT1 target gene (manuscript in preparation). Downregulation of GPC5 expression following WT1 antisense treatment and correlating with reduced WT1 expression was confirmed in independent experiments (see FIG. 6). […]

K562 cells = assay: Clonogenic cell survival assay in soft agar, K562 cells; assay type: cell-based, human
Procedure: Antisense or control oligonucleotides were dissolved in PBS and introduced into K562 cells by low voltage electroporation: 40 μl of appropriately diluted ASOs were combined with 360 μl of cell suspension at 2×10^7 cells/ml and cells were electroporated (Bio-Rad Gene Pulser® II Electroporation system with Pulse Controller Plus capacitance extender accessory module, Bio-Rad Laboratories Ltd, Hemel Hempstead, Herts, UK) using 300V and a capacitor value of 1000 μF, and diluted to 10 ml with complete medium. From each sample appropriate duplicate aliquots of cells were serially diluted in complete medium for assessment of cytotoxicity while the remaining cells were incubated at 37° C. for 24 hours ana RNA extracted for quantification of GPC5 and/or WT1 expression levels.
In this assay, cells are grown at low density in suspension in soft agar following treatment. […] 2 ml aliquots of diluted cells were added to polystyrene tubes (Elkay Products (UK) Ltd., Basingstoke, Hampshire, UK) containing 3 ml of medium supplemented with 20% FCS and 0.2% Agar Noble (DIFCO Laboratories, Detroit, Mich.), incubated at 37° C., and colonies containing at least 32 cells counted after 14 days. The number of colonies formed following drug treatment were compared to the number obtained following sham electroporation or a control scrambled oligonucleotide and expressed as % control treatment. […]

GPC5 mRNA = GPC5 mRNA quantification (TaqMan) after electroporation of antisense oligonucleotides into K562 cells; assay type: cell-based, human
Procedure: as §1, with “biopsies. […]” for “biopsies.”

WT1 = WT1 expression in PC3M tumours grown as subcutaneous implants in treated mice; assay type: in vivo, athymic nude mice; conditions: PC3M prostate cancer subcutaneous implants, mice treated with WT1 antisense; preliminary, data not shown
Procedure: The primer pair and probe for the quantification of WT1 were designed using the Primer Express program (Applied Biosystems) according to the recommended guidelines and as described above.: WT1—Forward primer, 5′-[…]-3′, reverse primer, 5′, […]-3′, and probe, 5′-[…]-3′. Each assay sample was analyzed in triplicate as above, and multiplexed to facilitate the measurement of gene expression levels relative to GAPDH (in vivo tumour samples) or 18 s ribosomal RNA expression (ribosomal RNA control reagents, Applied Biosystems) (in vitro cell line samples) using the standard curve method.
Previous gene profiling studies following treatment of K562 cells with WT1 directed ASOs, identified GPC5 as a putative WT1 target gene (manuscript in preparation). Downregulation of GPC5 expression following WT1 antisense treatment and correlating with reduced WT1 expression was confirmed in independent experiments (see FIG. 6). […] Direct transcriptional regulation of GPC5 by WT1 is likely since GPC5 has two WT1 consensus binding sites in its promoter region.

## ISIS 276107: 20 mer 2'-MOE chimeric phosphorothioate GPC5 antisense oligonucleotide, CAGCCCCCTGACAGCTCCCA (SEQ ID NO: 23) (all phosphorothioate, sugars by position and methylation of C not given here; 2'-MOE wings flank eight-deoxy central gap)
HL-60
  colony number following treatment: no decrease

## CC(=O)O[C@@]12CO[C@@H]1C[C@H](O)[C@@]1(C)C(=O)[C@H](O)C3=C(C)[C@@H](OC(=O)[C@H](O)[C@@H](NC(=O)OC(C)(C)C)c4ccccc4)C[C@@](O)([C@@H](OC(=O)c4ccccc4)[C@H]21)C3(C)C [docetaxol]
GPC5; PC3M tumours, mice treated with 15 mg/kg
  increase in GPC5 expression: 5 fold

## ISIS 276124: control oligonucleotide, TGGATTTGCTTTACACATCACT (SEQ ID NO: 25)
HL-60
  colony number following treatment: no decrease
K562 cells
  effect on cell viability / cell survival: not to affect
GPC5 mRNA
  effect on GPC5 expression / GPC5 levels: not to affect

## ASWT1exon5: WT1 antisense oligonucleotide targeting WT1 exon 5, GCCCCTTCTGTCCATTTCACT (SEQ ID NO: 26)
GPC5; PC3M prostate cancer subcutaneous implants, mice treated with WT1 antisense, data not shown
  reduction in GPC5 expression: 30%
WT1
  decrease in WT1 expression levels: 50%
